First: Cc1cc(N2NCCNC2=O)cc(Cl)c1Cc1ccc(Cl)cc1
Second: O=C(c1ccc(F)cc1)C1CCN(CCCn2c(=O)[nH]c3cc(Cl)c(Cl)cc32)CC1
The melting point of the first is lower: 197 to 198 °C for the first, 198 to 202 °C for the second.

Compared with `CC(=O)NC[C@H]1CN(c2ccc(C(=O)c3ccc[nH]3)cc2)C(=O)O1`, `O=C(NCCCCCCNC(=O)c1ccc2c(c1)OCO2)c1ccc2c(c1)OCO2` is lower in melting point: 202 to 205 °C for the first, 183 to 185 °C for the second.

First: CC1(C)OC(=O)Nc2ccc(-c3ccc(C#N)o3)cc21
Second: Nc1ccc2oc(-c3ccccc3)c(O)c(=O)c2c1
The melting point of the first is higher: 257 to 260 °C for the first, 211 to 212 °C for the second.

Compared with `O=C1Nc2ccccc2Sc2ncccc21`, `O=C(COc1cccnc1)c1ccccc1` is lower in melting point: 260 to 261 °C for the first, 81 to 82 °C for the second.

First: O=C1C=C2CN(C(C(=O)C3CC3)c3ccccc3Cl)CCC2S1 (configuration not stated)
Second: Clc1ccc2c(c1)CCC(N1CCCC1)=C2
The melting point of the first is higher: 119 to 123 °C for the first, 117 to 118 °C for the second.

Compared with `CC(=O)N1CCN(Cc2cnc(-c3cc4cccc(NS(=O)(=O)c5cccs5)c4[nH]3)s2)CC1`, `Cc1cc(NS(=O)(=O)c2cccs2)c2[nH]c(C3=NCCS3)cc2c1C` is higher in melting point: 149 to 150 °C for the first, 201 to 202 °C for the second.

First: N#CC1=C(C2CC2)Nc2n[nH]cc2C1c1ccccc1Br (configuration not stated)
Second: CCCOc1ccccc1C1C(C(=O)OCC)=C(CCC)Nc2n[nH]cc21 (configuration not stated)
The melting point of the first is higher: greater than 250 °C for the first, 205 °C for the second.

First: CCCCCCCCCCN=C=O
Second: CCCCn1c(=O)c2c(ncn2S(=O)(=O)c2cc(C)c(Cl)cc2C)n(CCCC)c1=O
The melting point of the first is lower: 110 to 112 °C for the first, 138 to 140 °C for the second.

First: Cc1ccc2c(c1)CC(=S)N2
Second: COc1ccc2c(c1[N+](=O)[O-])C(=O)CC2
The melting point of the first is lower: 120 to 122 °C for the first, 155 to 158 °C for the second.

Compared with `COc1ccc(-c2nc(N)sc2CCC2CCCCC2)c(OC)c1`, `COc1cc(Nc2nc3c(s2)CCCC3c2ccccc2)ccc1C(N)=O` (configuration not stated) is higher in melting point: 122 °C for the first, 243 to 246 °C for the second.

Compared with `CCCn1cc2c(C3C(=O)Nc4ccc(Br)cc43)nc(NCc3cccnc3)nc2n1` (configuration not stated), `CCOCc1nc2c(N)nc3cc(-c4cccnc4)cnc3c2n1CC(C)C` is lower in melting point: 277 to 281 °C for the first, 177 to 179 °C for the second.

Compared with `COc1ncc(C(F)(F)F)cc1-c1cccn2nc(Cl)nc12`, `Nc1ncc(-c2noc(-c3cnn4c(C(F)(F)F)cc(-c5ccc(C(F)(F)F)cc5)nc34)n2)cn1` is higher in melting point: 183 to 185 °C for the first, 254 °C for the second.

First: CC(C)C(=O)CCC(C)C1CCC2C3CC=C4CC(O)CCC4(C)C3CCC12C (configuration not stated)
Second: CC1=CC(O)C(O)C(C)(C)CC1OC(=O)c1ccccc1 (configuration not stated)
The melting point of the first is higher: 135 to 136 °C for the first, 94 to 96 °C for the second.

First: Nc1nc(-c2ccc(CNC(=O)c3cccnc3)s2)cs1
Second: Cn1nnc2c(N3CCOCC3)nc(-c3ccc(NC(=O)Nc4cccnc4)cc3)nc21
The melting point of the first is lower: 240 to 241 °C for the first, 272 °C for the second.

First: O=C1C(c2ccccc2)=C(c2ccccc2)C(=O)N1c1ccccc1C(F)(F)F
Second: N#Cc1c(C(=Nc2ccccc2)c2ccccc2)n(O)c2ccccc12
The melting point of the first is lower: 152 to 153 °C for the first, 188 to 190 °C for the second.

`COc1cccc2c1C(=O)N(CCl)S2(=O)=O` and `O=C1CN(c2cccc(CF)c2)NC(=O)N1` cannot be ordered by melting point: 169 to 174 °C for the first, 169 to 170 °C for the second.

First: c1cc(C2=NOC(C3CC3)(N3CCCC3)C2)ccn1 (configuration not stated)
Second: O=C(c1cccs1)c1cnn2c(-c3cccc(NC(=O)C4CCCC4)c3)ccnc12
The melting point of the first is lower: 80 to 85 °C for the first, 209 to 210 °C for the second.

First: CCCCOc1cc(OCCCc2cn(-c3ccc(C(F)(F)F)cn3)nc2OCC)ccc1CCC(=O)O
Second: CCOC(=O)CCCOc1nn2c(-c3ccc(OC)cc3)nnc2c2ccccc12
The melting point of the first is higher: 123 to 124 °C for the first, 114 to 117 °C for the second.

First: Cc1cc(N)nc(CCc2nc3cc(-c4ccc(S(=O)(=O)N5CCN(C)CC5)cc4)cnc3[nH]2)c1
Second: COc1ccc(-c2ccc(C(=O)Nc3ccc4cc(CN5CCCCCC5)cnc4c3C)c(F)c2)cc1
The melting point of the first is lower: 135 °C for the first, 171 to 172 °C for the second.

First: CC(C)(C)c1cc(C=C(C#N)C(N)=S)cc(C(C)(C)C)c1
Second: C[C@@H](CO)NC(=S)[C@@H](CC(=O)OC(C)(C)C)NC(=O)OC(C)(C)C
The melting point of the first is higher: 172 to 174 °C for the first, 70 to 72 °C for the second.

First: O=C(Cc1ccc([N+](=O)[O-])cc1)CN1C(=O)c2ccccc2C1=O
Second: COC(=O)Cc1ccc2c(c1)C(OC)=Cc1ccccc1C2
The melting point of the first is higher: 184 °C for the first, 72 to 73 °C for the second.

First: C#CCOc1cc(C(N)=O)cc(Cl)c1OCC#C
Second: OCCC(O)OCn1cc(Cl)c2c(Cl)ncnc21 (configuration not stated)
The melting point of the first is lower: 122 to 125 °C for the first, 142 to 143 °C for the second.

First: CC(=O)Nc1nc2ccc(O)cc2n1S(=O)(=O)N(C)C
Second: CC(=O)Nc1c(OC(C)=O)cc(C)c(C)c1[N+](=O)[O-]
The melting point of the first is lower: 175 to 176 °C for the first, 209 to 211 °C for the second.

First: CCN(CC)CCOC(=O)c1cnc2ccn(-c3ccccc3)n2c1=O
Second: CCOC(=O)c1cc2c3ccccc3n(CCCc3ccccc3)c2c(C)n1
The melting point of the first is higher: 127 to 130 °C for the first, 101 to 102 °C for the second.

First: CN1Cc2c(c3cc(CCCN4CCN(c5nsc6ccccc56)CC4)ccc3[nH]c2=O)C1
Second: COc1cccc(CNc2nccc(-c3cc(N4CCN(CCCN5CCC5)CC4)c4cc(OC)ccc4c3)n2)c1
The melting point of the first is higher: 206 to 208 °C for the first, 122 to 130 °C for the second.

Compared with `COC12CC(CNC(=S)NC(C)=O)CN(C)C1Cc1cn(C)c3cccc2c13` (configuration not stated), `CN1CC(Cn2cncn2)CC2c3cccc4[nH]cc(c34)CC21` (configuration not stated) is higher in melting point: 170 to 172 °C for the first, 245 to 253 °C for the second.

First: Cc1oc(-c2ccccc2)nc1COc1ccc(CCCCC2OC(=O)NC2=O)cc1 (configuration not stated)
Second: Cc1oc(-c2ccccc2)nc1CCOc1ccc(CCC2OC(=O)NC2=O)cc1 (configuration not stated)
The melting point of the first is lower: 186 to 187 °C for the first, 193 to 194 °C for the second.

First: Cc1c([N+](=O)[O-])ccc(N)c1C(=O)O
Second: O=[N+]([O-])c1ccc(F)cc1CO
The melting point of the first is higher: 183 to 184 °C for the first, 82 to 86 °C for the second.

First: COc1cc(OC)c(-c2cccs2)cc1/C=C/C(=O)c1ccc(S(=O)(=O)Nc2cc(C)on2)cc1
Second: CCOc1ccc(CN2C(=O)C(C)(c3ccccc3Cl)c3cc(Cl)ccc32)c(OC)c1 (configuration not stated)
The melting point of the first is higher: 202 to 203 °C for the first, 124 °C for the second.

First: COC(=O)COC1C(O)C(CO)OC(Oc2ccc(N)cc2)C1O (configuration not stated)
Second: CCOC(=O)c1cc(-c2ccc(OC)cc2)[nH]c1N
The melting point of the first is higher: 155 °C for the first, 141 to 142 °C for the second.

First: CCCNc1nc(NCCC)nc(N2CCN(C(=O)Nc3cc(C)c(C)nc3OC)CC2)n1
Second: CC(C)(C)CNc1nc(N2CCCC2)cc(N2CCNCC2)n1
The melting point of the first is higher: 140 to 143 °C for the first, 118 to 120 °C for the second.

Compared with `CCOC(=O)c1ccc(N)cc1C(=O)OCC`, `COC(=O)Oc1ccc(F)cc1Br` is lower in melting point: 95.6 °C for the first, 75 to 78 °C for the second.

First: CNCCCn1c(-c2ccc(OC)cc2)csc1=Nc1ccccc1
Second: COc1cccc(CN(CC(=O)O)Cc2ccccc2)c1
The melting point of the first is lower: 143 to 146 °C for the first, 177 to 179 °C for the second.

Compared with `O=C(NNc1nc(-c2ccccc2)c2cc(Cl)ccc2n1)C(F)(F)F`, `O=C1Nc2c(C(F)(F)F)cccc2C1(O)c1cc(Cl)ccc1O` (configuration not stated) is lower in melting point: 207 to 208 °C for the first, 205 to 207 °C for the second.

Compared with `O=C1CCCc2nc(N3CCN(Cc4ccccc4)CC3)ncc2N1`, `O=c1cc(-c2ccccc2)cc2n1CCN2Cc1ccccc1` is lower in melting point: 211 °C for the first, 165 to 167 °C for the second.

First: CC(C)c1cc(-c2ccc(F)cc2)c(CO)c(C(C)C)n1
Second: CS(=O)(=O)c1ccc(-c2cc(=O)n(CC3CC3)nc2-c2ccc(F)cc2)cc1
The melting point of the first is lower: 88 to 90 °C for the first, 130 to 132 °C for the second.

First: O=C(CBr)CCc1ccc(I)cc1
Second: O=C(Nc1cccc([N+](=O)[O-])c1)C(Br)CCBr (racemic)
The melting point of the first is higher: 76 to 77 °C for the first, 75 to 76 °C for the second.

Compared with `CCc1nc2cc(C(F)(F)F)c(Cl)cc2n1-c1ccc(CCOC(=O)NS(=O)(=O)c2ccccn2)cc1`, `COc1cc(SCc2sc(-c3ccc(C(F)(F)F)cc3)nc2C)c(C)cc1OCC(=O)O` is higher in melting point: 127 to 130 °C for the first, 165 to 167 °C for the second.

Compared with `Cn1ccnc1S(=O)c1ccc(Cl)cc1` (configuration not stated), `Cc1ccc(-c2nc(Cc3cccc(C=O)c3)c(C)o2)cc1` is higher in melting point: 96 to 97 °C for the first, 98 to 99 °C for the second.

Compared with `O=c1[nH]c2cc(C(F)(F)F)cc(C(F)(F)F)c2[nH]c1=O`, `N#Cc1ccc(C(F)(F)C(F)(F)C(F)(F)c2ccc(C#N)c(C#N)c2)cc1C#N` is lower in melting point: 305 to 308 °C for the first, 133 to 135 °C for the second.

Compared with `C=CCNc1nc(SC)nc2cc(OC)c(OC)cc12`, `c1ccc(OCCNc2nc(Nc3cc(C4CC4)n[nH]3)c3ccccc3n2)cc1` is higher in melting point: 122 to 124 °C for the first, 203 °C for the second.

First: CCc1nnc2c3c(c(Cl)nn12)CCCC3
Second: N#CSc1c(C2CC2)[nH]c(Cl)c1C#N
The melting point of the first is lower: 93 to 94 °C for the first, 123 °C for the second.

First: COC(=O)C(=Cc1ccc2c(c1)OCO2)C(=O)c1cccc(OCc2ccccc2)c1
Second: CS(=O)(=O)C(=C1CN(C(c2ccccc2)c2ccccc2)C1)c1cccc(C#N)c1
The melting point of the first is lower: 116 to 118 °C for the first, 152 °C for the second.

First: CON=C(C1=CN(C)CC=C1)C(F)(F)F
Second: CON=C(C(C)=NN)c1ccccc1
The melting point of the first is higher: 140 to 143 °C for the first, 132 °C for the second.

Compared with `CC(C)Cc1ccc(C(C)C(=O)ON(C(N)=O)C(C)c2cc3ccccc3s2)cc1` (configuration not stated), `CCC1(CC)c2cc(I)ccc2-c2ccc(-c3nc4ccccc4s3)cc21` is higher in melting point: 123 to 128 °C for the first, 158 to 160 °C for the second.

First: CCOCCOc1ccc(-c2ccc3c(c2)C=C(C(=O)Nc2ccc(CN(C)C4CCOCC4)cc2)CCS3(=O)=O)cc1OCCOCC
Second: Cc1nc(-c2ccc(C#N)cc2)sc1C(=O)N[C@H](C)[C@](O)(Cn1cncn1)c1ccc(C(F)(F)F)cc1 (relative stereo)
The melting point of the first is higher: 150 to 151 °C for the first, 105 to 111 °C for the second.

Compared with `N#CC(=Cc1ccc(O)c(O)c1)C(=O)NCCCNC(=O)C(C#N)=Cc1ccc(O)c(O)c1`, `Cc1c(Cl)cccc1NS(=O)(=O)c1cc(S(=O)(=O)Nc2cccc(Cl)c2C)c2ccccc2c1O` is lower in melting point: 274 °C for the first, 245 to 247 °C for the second.

Compared with `CC1(COC(=O)N2CCN(c3ccc(OC(F)(F)F)cc3)CC2)Cn2cc([N+](=O)[O-])nc2O1` (configuration not stated), `COC(=O)Nc1nc2cc(SCC3CC3)ccc2[nH]1` is higher in melting point: 138 to 140 °C for the first, 228 to 231 °C for the second.

Compared with `CC(=NC12CC3CC(CC(C3)C1)C2)NC12CC3CC(CC(C3)C1)C2`, `ON=C1C[C@H]2CC=CC[C@H]2C1` is lower in melting point: 255 to 258 °C for the first, 100 to 103 °C for the second.

Compared with `c1ccc(C(Cn2cncn2)c2ccccc2)cc1`, `O=S1CCON=C1c1cccc(F)c1` (configuration not stated) is lower in melting point: 107 to 108 °C for the first, 79 °C for the second.

First: C#Cc1c(-c2ccc(OC(F)F)c(OC3CC3)c2)[nH]c2cn[nH]c(=O)c12
Second: N#Cc1cc(O)cc(F)c1
The melting point of the first is higher: greater than 300 °C for the first, 138 to 139 °C for the second.

From a melting point compilation (Tetko et al.; mined from patent text by program, amines drawn as free bases though some values may be those of a salt)
